Measurements reported in patent US9974775B2, “Substituted imidazoles as N-type calcium channel blockers” (Janssen Pharmaceutica NV, priority 2013, dated 2018).
Like-named read-outs stand apart in the source and are kept apart here.

What was measured:
[1] = tested on: mechanical allodynia after L5/L6 spinal nerve ligation; test: Sciatic nerve ligation (SNL) model of neuropathic pain; assay type: in vivo; conditions: rats; dose 50 mg/kg; response at Tmax
From the text: Left L5 and L6 spinal nerves are isolated adjacent to the vertebral column and were ligated with 5-0 silk suture distal to the dorsal root ganglion, as described by Kim and Chung (1992). The incision was closed with the help of GLUture topical tissue adhesive. At 14 days post-surgery (one day prior to test compound administration), mechanical allodynia was quantified using eight von Frey filaments, calibrated in the range 0.4-15.1 g (Nielsen et al 2005). Rats were placed into individual plastic containers on top of a suspended wire mesh grid and acclimated to the test chambers for at least 15 min. Filaments were applied perpendicular to the mid-plantar paw surface, with enough force to cause slight buckling, and held in place for 6-8 sec until a response was noted as a sharp paw withdrawal, flinching, licking and/or biting immediately upon removal of the filament (Nielsen et al 2005). […] Test compounds of Formula (I) were administered and a response was measured at Tmax. The maximum possible effect (% MPE) was determined to be 100% if the sensitivity in the ipsilateral paw neared that of the contralateral paw. Values from vehicle-treated animals were considered 0%. The compound effect was determined based on these values.

[2] = molecular target: T1, human N-type Ca channel (Homo sapiens, UniProt Q00975); test: Calcium influx assay (FDSS); assay type: cell-based; parameters: host or cells: HEK 293; conditions: HEK 293 cells, depolarized with 100 mM KCl
T1 sequence (Q00975 whole entry): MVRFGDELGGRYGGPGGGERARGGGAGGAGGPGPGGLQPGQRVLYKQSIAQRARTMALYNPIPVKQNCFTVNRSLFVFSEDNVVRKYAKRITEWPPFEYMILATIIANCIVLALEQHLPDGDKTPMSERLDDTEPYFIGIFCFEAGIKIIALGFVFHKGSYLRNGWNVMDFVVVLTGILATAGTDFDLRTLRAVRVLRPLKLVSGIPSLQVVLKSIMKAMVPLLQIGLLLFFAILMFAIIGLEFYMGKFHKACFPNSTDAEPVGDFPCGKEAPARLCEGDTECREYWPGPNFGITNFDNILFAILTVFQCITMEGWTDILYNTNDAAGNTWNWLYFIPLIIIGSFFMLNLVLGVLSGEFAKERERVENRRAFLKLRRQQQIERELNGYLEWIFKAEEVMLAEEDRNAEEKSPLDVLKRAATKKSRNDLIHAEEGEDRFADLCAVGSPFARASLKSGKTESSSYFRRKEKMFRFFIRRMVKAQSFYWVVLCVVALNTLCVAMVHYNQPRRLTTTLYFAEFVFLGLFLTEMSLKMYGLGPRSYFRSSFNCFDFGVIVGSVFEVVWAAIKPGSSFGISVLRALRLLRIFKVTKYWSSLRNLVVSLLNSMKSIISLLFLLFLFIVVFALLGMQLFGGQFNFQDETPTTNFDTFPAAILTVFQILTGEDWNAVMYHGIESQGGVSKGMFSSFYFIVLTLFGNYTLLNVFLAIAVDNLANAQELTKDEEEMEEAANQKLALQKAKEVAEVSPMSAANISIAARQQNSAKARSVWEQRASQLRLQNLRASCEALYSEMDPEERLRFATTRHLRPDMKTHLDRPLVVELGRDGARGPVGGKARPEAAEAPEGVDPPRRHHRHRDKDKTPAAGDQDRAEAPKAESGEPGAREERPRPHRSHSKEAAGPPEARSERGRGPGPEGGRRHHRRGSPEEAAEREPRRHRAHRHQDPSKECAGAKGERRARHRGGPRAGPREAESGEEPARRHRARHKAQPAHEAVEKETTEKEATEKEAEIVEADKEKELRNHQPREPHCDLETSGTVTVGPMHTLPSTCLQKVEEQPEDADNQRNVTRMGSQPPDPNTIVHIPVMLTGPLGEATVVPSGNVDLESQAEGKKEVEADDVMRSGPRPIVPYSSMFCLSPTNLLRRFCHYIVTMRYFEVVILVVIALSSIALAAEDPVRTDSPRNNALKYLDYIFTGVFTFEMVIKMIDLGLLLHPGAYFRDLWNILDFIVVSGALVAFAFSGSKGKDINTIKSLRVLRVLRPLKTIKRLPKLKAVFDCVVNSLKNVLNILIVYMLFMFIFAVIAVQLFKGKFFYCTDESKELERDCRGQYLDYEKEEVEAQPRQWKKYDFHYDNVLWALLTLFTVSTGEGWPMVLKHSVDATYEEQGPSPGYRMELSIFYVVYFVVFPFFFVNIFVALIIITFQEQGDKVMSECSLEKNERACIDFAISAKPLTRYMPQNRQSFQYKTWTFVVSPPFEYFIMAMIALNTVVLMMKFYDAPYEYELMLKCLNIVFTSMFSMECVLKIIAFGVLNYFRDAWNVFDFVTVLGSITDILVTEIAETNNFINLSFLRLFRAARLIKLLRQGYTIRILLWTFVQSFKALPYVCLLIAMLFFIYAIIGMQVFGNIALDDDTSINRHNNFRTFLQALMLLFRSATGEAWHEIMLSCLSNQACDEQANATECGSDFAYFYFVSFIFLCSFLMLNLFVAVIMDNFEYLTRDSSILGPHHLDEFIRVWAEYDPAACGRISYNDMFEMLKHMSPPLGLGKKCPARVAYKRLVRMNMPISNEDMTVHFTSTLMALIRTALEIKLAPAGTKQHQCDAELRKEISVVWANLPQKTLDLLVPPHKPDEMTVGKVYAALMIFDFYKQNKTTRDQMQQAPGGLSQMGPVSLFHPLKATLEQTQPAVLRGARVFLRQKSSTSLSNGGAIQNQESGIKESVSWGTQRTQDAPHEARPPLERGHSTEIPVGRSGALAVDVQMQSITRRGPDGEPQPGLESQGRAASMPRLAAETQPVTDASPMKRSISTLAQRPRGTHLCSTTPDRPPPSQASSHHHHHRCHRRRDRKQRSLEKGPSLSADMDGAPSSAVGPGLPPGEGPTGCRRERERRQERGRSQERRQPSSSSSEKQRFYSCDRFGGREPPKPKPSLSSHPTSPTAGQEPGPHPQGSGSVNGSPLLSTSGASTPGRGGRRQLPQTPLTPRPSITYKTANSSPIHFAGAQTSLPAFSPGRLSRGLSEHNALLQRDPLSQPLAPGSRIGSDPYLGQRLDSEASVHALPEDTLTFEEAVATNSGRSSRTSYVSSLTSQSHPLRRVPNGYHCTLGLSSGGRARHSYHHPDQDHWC
T1 sequence (P54284 whole entry partner): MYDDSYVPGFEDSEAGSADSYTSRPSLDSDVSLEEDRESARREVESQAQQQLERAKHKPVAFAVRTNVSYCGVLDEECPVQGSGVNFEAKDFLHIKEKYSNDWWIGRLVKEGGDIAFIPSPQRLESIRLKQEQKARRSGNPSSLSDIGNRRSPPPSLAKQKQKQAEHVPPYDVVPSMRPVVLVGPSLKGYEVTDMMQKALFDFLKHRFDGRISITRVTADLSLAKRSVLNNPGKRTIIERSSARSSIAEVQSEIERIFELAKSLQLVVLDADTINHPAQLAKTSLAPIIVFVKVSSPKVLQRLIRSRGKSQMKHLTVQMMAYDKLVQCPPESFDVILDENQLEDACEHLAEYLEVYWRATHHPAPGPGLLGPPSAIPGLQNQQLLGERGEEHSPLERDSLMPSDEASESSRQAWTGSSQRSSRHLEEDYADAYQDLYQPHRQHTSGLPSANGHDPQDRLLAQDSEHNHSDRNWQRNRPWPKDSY
T1 sequence (P54289 25-956 partner limits assumed): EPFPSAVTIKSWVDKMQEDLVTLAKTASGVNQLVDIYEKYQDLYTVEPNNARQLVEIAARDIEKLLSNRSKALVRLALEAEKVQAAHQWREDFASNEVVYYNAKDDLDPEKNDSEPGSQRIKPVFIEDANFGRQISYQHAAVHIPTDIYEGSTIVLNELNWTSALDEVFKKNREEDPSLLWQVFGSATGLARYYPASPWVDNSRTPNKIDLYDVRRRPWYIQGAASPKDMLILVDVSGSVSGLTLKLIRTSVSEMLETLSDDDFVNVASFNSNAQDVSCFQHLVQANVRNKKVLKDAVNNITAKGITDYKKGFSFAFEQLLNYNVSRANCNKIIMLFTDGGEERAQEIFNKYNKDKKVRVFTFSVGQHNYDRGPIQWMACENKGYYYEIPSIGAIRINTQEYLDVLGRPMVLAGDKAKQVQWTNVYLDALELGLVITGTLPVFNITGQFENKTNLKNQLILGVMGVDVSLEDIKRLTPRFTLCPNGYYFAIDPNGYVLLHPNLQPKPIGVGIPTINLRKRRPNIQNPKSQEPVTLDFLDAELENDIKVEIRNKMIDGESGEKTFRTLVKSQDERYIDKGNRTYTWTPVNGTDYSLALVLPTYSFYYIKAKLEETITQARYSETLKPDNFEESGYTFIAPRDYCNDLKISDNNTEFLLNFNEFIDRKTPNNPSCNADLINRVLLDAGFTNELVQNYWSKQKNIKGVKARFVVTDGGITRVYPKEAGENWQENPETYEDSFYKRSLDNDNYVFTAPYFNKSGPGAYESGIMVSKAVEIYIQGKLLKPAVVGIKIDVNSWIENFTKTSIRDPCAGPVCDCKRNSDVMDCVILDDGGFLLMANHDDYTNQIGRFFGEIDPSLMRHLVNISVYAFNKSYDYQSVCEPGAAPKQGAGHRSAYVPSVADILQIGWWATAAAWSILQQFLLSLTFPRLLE
T1 sequence (P54289 957-1103 partner limits assumed): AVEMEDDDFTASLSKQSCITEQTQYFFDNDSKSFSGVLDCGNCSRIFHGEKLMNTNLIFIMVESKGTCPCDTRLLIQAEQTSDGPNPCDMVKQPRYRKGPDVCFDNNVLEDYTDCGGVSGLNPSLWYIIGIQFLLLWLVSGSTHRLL
Method: All cell culture reagents were procured from HyClone and other reagents were from Fisher. Recombinant HEK 293 cells expressing human N-type Ca channel (Millipore) were maintained in DMEM F12 containing 10% FBS and selection antibiotics at 37° C. in 5% CO2.
Cells were incubated at 30° C. in 5% CO2 overnight. The medium was removed and cells were loaded with Fluo8 dye (AAT Bioquest) at 37° C. and 30° C., 30 min each in darkness. Cells were washed four times with wash buffer (16 mM Herep pH 7.2, 2 mM CaCl2, 1 mM MgCl2, 5 mM glucose, 140 mM choline chloride and 2 mM KCl) leaving 15 μL buffer after the last wash. Compounds of Formula (I), serially diluted, were added to the cell plate. The plates were incubated in darkness for 15 min. Cells were depolarized with 100 mM KCl and Ca influx was measured.

[3] = molecular target: T1, human N-type Ca channel; test: Measurement of electrophysiological response (QPatch)
Method: The recombinant cell line described above was used in the measurement of electrophysiological properties with QPatch (Sophion). […] Prior to the experiment, the flasks were moved to 30° C. and incubated for 48-72 hrs. On the day of assaying, cells were detached and harvested. The cell pellet was re-suspended in SMF4HEK (HyClone)/25 mM HEPS at 2-5 million/mL and placed on the QStirrer of the QPatch for 30-60 min prior to the start of the assay. […] Microtiter-Plate/Reference Buffer contained 140 mM TEA-Cl, 10 mM BaCl2, 0.8 mM MgCl2, 10 mM HEPES pH˜7.4 adjusted with TEA-OH/HCl, and ˜300 mOsm. Cells were transferred to a QPatch 48 plate and gigaseal was formed. The plate was perfused with intracellular and extracellular buffer. […] In brief, cells were depolarized from resting potential of −80 mV to +20 mV and current was recorded. Data was plotted as percent inhibition vs concentration of the compound and IC50 values were generated using Graphpad Prism non-linear regression analysis.

[4] = read-out: Qpatch Pulse = 1 (percent inhibition)
[5] = concentration range 0.01-0.3 μM
[6] = N Type IC50 Data Qpatch Pulse = 1, Pulse = 1, concentration range 0.3-10 μM
[7] = N Type IC50 Data Qpatch Pulse = 15, Pulse = 15, concentration range 0.3-10 μM

Row | Structure (SMILES) | IC50 [2] [nM] | IC50 [3, 7] [nM] | other results
1 | COc1ccccc1-c1nc(C2CC(C)(C)OC(C)(C)C2)cn1-c1ccc(C#N)cc1 [Cpd 1, 4-(2-(2-methoxyphenyl)-4-(2,2,6,6-tetramethyltetrahydro-2H-pyran-4-yl)-1H-imidazol-1-yl)benzonitrile] | – | – | SNL(% MPE) [1]: 64.07 ± 12.31%
2 | CC1(C)CC(c2cn(-c3ccc(C#N)cc3)c(C3CC3)n2)CC(C)(C)O1 [Cpd 57, 4-[2-Cyclopropyl-4-(2,2,6,6-tetramethyltetrahydro-2H-pyran-4-yl)-1H-imidazol-1-yl]benzonitrile] | ≥ 10000 | – | –
3 | COc1ccccc1-c1nc(C2CC(C)(C)OC(C)(C)C2)cn1-c1ccc(F)c(C#N)c1 [Cpd 74, 2-Fluoro-5-[2-(2-methoxy-phenyl)-4-(2,2,6,6-tetramethyl-tetrahydro-pyran-4-yl)-imidazol-1-yl]-benzonitrile] | 488 | – | inhibition at 10 µM [3, 4]: 36%; inhibition at 10 µM ([3]; read-out: Qpatch Pulse = 15 (percent inhibition)): 44%
4 | COc1cc(-n2cc(C3CC(C)(C)OC(C)(C)C3)nc2-c2cccnc2OC)ccc1C#N [Cpd 77, 2-Methoxy-4-[2-(2-methoxypyridin-3-yl)-4-(2,2,6,6-tetramethyltetrahydro-2H-pyran-4-yl)-1H-imidazol-1-yl]benzonitrile] | ≥ 10000 | – | –
5 | COc1nccnc1-c1nc(C2CC(C)(C)OC(C)(C)C2)cn1-c1ccc(C#N)c(F)c1 [Cpd 88, 2-fluoro-4-(2-(3-methoxypyrazin-2-yl)-4-(2,2,6,6-tetramethyltetrahydro-2H-pyran-4-yl)-1H-imidazol-1-yl)benzonitrile] | – | – | N Type IC50 Data Qpatch Pulse = 15 [3, 5]: poor fit
6 | CCOc1ncccc1-c1nc(C2CC(C)(C)OC(C)(C)C2)cn1-c1ccc(C#N)c(F)c1 [Cpd 89, 4-(2-(2-ethoxypyridin-3-yl)-4-(2,2,6,6-tetramethyltetrahydro-2H-pyran-4-yl)-1H-imidazol-1-yl)-2-fluorobenzonitrile] | – | – | N Type IC50 Data Qpatch Pulse = 15 [3, 5]: poor fit
7 | COc1ccccc1-c1nc(C2CC(C)(C)OC(C)(C)C2)c(C)n1-c1ccc(Cl)cc1 [Cpd 90, 1-(4-chlorophenyl)-2-(2-methoxyphenyl)-5-methyl-4-(2,2,6,6-tetramethyltetrahydro-2H-pyran-4-yl)-1H-imidazole] | – | – | N Type IC50 Data Qpatch Pulse = 1 ([3]; Pulse = 1, concentration range 0.01-0.3 μM): poor fit; N Type IC50 Data Qpatch Pulse = 15 [3, 5]: poor fit
8 | COc1ccccc1-c1nc(C2CC(C)(C)OC(C)(C)C2)cn1S(=O)(=O)C1CC1 [Cpd 95, 1-(Cyclopropylsulfonyl)-2-(2-methoxyphenyl)-4-(2,2,6,6-tetramethyltetrahydro-2H-pyran-4-yl)-1H-imidazole] | ≥ 10000 | – | –
9 | COc1ccccc1-c1nc(C2CC(C)(C)OC(C)(C)C2)cn1S(=O)(=O)CC(C)C [Cpd 96, 2-(2-Methoxyphenyl)-1-[(2-methylpropyl)sulfonyl]-4-(2,2,6,6-tetramethyltetrahydro-2H-pyran-4-yl)-1H-imidazole] | – | – | IC50 [3]: ≥ 10000 nM
10 | COc1ccccc1-c1nc(C2CC(C)(C)OC(C)(C)C2)cn1Cc1cncnc1 [Cpd 100, 5-{[2-(2-Methoxyphenyl)-4-(2,2,6,6-tetramethyltetrahydro-2H-pyran-4-yl)-1H-imidazol-1-yl]methyl}pyrimidine] | ≥ 10000 | ≥ 10000 | IC50 [3, 6]: ≥ 10000 nM
11 | COc1ccccc1-c1nc(C2(O)CC(C)(C)OC(C)(C)C2)cn1-c1ccc(F)c(Br)c1 [Cpd 106, 4-[1-(3-Bromo-4-fluorophenyl)-2-(2-methoxyphenyl)-1H-imidazol-4-yl]-2,2,6,6-tetramethyltetrahydro-2H-pyran-4-ol] | 148 | 5030 | inhibition at 10 µM [3, 4]: 71%
12 | COc1ncccc1-c1nc(C2(O)CC(C)(C)OC(C)(C)C2)cn1-c1ccc(F)c(C#N)c1 [Cpd 116, 2-Fluoro-5-[4-(4-hydroxy-2,2,6,6-tetramethyltetrahydro-2H-pyran-4-yl)-2-(2-methoxypyridin-3-yl)-1H-imidazol-1-yl]benzonitrile] | 1370 | – | IC50 ([3]; N Type IC50 Data Qpatch Pulse = 1, Pulse = 1, concentration range 0.01-1 μM): > 1000 nM; IC50 ([3]; N Type IC50 Data Qpatch Pulse = 15, Pulse = 15, concentration range 0.01-1 μM): > 1000 nM
13 | COc1ccccc1-c1nc(C2(O)CC(C)(C)OC(C)(C)C2)cn1-c1ccc(C#N)c(F)c1 [Cpd 118, 2-Fluoro-4-[4-(4-hydroxy-2,2,6,6-tetramethyltetrahydro-2H-pyran-4-yl)-2-(2-methoxyphenyl)-1H-imidazol-1-yl]benzonitrile] | – | ≥ 10000 | –
14 | COc1ccccc1-c1nc(C2CC(C)(C)OC(C)(C)C2)cn1-c1ccc(C#N)c(C(F)(F)F)c1 [Cpd 121, 4-[2-(2-Methoxyphenyl)-4-(2,2,6,6-tetramethyltetrahydro-2H-pyran-4-yl)-1H-imidazol-1-yl]-2-(trifluoromethyl)benzonitrile] | 233 | 3300 | IC50 [3, 6]: 6600 nM
15 | COc1ccccc1-c1nc(C2=CC(C)(C)OC(C)(C)C2)cn1-c1ccc(C#N)c(F)c1 [Cpd 126, 2-Fluoro-4-[2-(2-methoxyphenyl)-4-(2,2,6,6-tetramethyl-3,6-dihydro-2H-pyran-4-yl)-1H-imidazol-1-yl]benzonitrile] | 234 | 1900 | –
